Measurements published in PMC10641236, “Influenza A virus replication has a stronger dependency on Raf/MEK/ERK signaling pathway activity than SARS-CoV-2” (Frontiers in Cellular and Infection Microbiology, 2023).
Like-named read-outs stand apart in the source and are kept apart here.

What was measured:
[1] = tested on: MEK1/2 (ERK1/2 phosphorylation); test: IC50 determination in virus-infected cells, pERK/ERK ratio by WES; format: cell-based, Homo sapiens; conditions: for IC50: Homo sapiens
Protocol: Calu-3 and Caco-2 cells were seeded in 24-well plates (Greiner Bio-One GmbH, Frickenhausen, Germany) and grown to 90% confluence. The cells were washed once with infection medium [IMDM supplemented with 0.2% bovine serum albumin (BSA) (Carl Roth GmbH + Co. KG, Karlsruhe, Germany) and 1% penicillin–streptomycin] prior to infection with a multiplicity of infection (MOI) of 0.01 of IAV PR8 or SARS-CoV-2 for 1 h in 200 µL of infection medium per well. Afterwards, the virus inoculum was removed completely, and the cells were washed once with infection medium and then treated with 1 mL per well of different concentrations of zapnometinib in infection medium with 1% dimethyl sulfoxide (DMSO) (Merck Millipore, Burlington, MA, USA) for 24 h at 37°C, 5% CO2. Supernatants were harvested and stored at −80°C for subsequent determination of virus titer and EC50 value. Cell lysates were prepared as described in the “Preparation of cell lysates and WES™ analysis” section for WES™ analysis.
Cells were lysed using cold modified RIPA buffer [0.24% (w/v) tris base (Sigma-Aldrich, St. Louis, Missouri, USA), 0.88% (w/v) NaCl (Carl Roth, Karlsruhe, Germany), 0.2% (v/v) 500 mM ethylenediaminetetraacetic acid (EDTA) (Sigma-Aldrich, St. Louis, Missouri, USA), 1% (v/v) Triton X-100 (Sigma-Aldrich, St. Louis, Missouri, USA), 0.5% (w/v) sodium deoxycholate (Sigma-Aldrich, St. Louis, Missouri, USA), 0.1% (w/v) sodium dodecyl sulfate (SDS) (Carl Roth, Karlsruhe, Germany), 10% (v/v) glycerol (Carl Roth, Karlsruhe, Germany), 0.05% phenylmethylsulfonyl fluoride (PMSF) (Carl Roth, Karlsruhe, Germany), 0.01% Benzonase® Nuclease (Sigma-Aldrich, St. Louis, Missouri, USA), protease inhibitor cocktail (Roche, Basel, Switzerland), and phosphatase inhibitor cocktail (Roche, Basel, Switzerland) in water]. Determination of the protein concentration was performed using the Pierce™ BCA Protein Assay Kit (Thermo Fisher Scientific Inc., Waltham, MA, USA) according to the manufacturer’s instructions. The samples were analyzed by Wes™ using a total protein concentration of 0.25–0.5 µg/µL for each sample, the Jess/Wes Separation kit (12–230 kDa), primary antibodies against ERK1/2, p44/42 MAPK (137F5) Rabbit mAb (Cell Signaling Technology, Danvers, MA, USA, Cat. No. 4695S) and phospho-ERK1/2 (pERK1/2), Phospho-p44/42 MAPK (Erk1/2) (Thr202/Tyr204) (D13.14.4E), XP® Rabbit mAb (Cell Signaling Technology, Danvers, MA, USA, Cat. no. 4370S) in a 1:50 dilution, anti-Influenza A virus Nucleoprotein (NP) antibody (rabbit MAb) (Sino Biological, Beijing, China Cat.no 40208-R010) in a 1:150 dilution, SARS-CoV-2 nucleocapsid protein antibody (ProSci Inc., Poway, CA, USA, Cat. no. 35-580) in a 1:100 dilution, the anti-goat, anti-rabbit, and anti-mouse detection modules, and the EZ Standard Pack 1 (12–230 kDa), according to the manufacturer’s instructions. Analysis of the obtained data was performed using the Compass for SW 4.1.0 software, Microsoft Excel, and the GraphPad Prism 9.2.0 software. Ratios were calculated from the area under the curve of the respective detected signals.
Twenty-four hours before the experiment, the growth medium was exchanged to medium with respective FBS or BSA concentration. Then, cells were stimulated by the addition of tumor necrosis factor alpha (TNF-α) (Sigma-Aldrich, St. Louis, Missouri, USA) for 30 min at 37°C, 5% CO2, followed by treatment with different zapnometinib concentrations and a DMSO (solvent) control for 1 h. For determination of the IC50 value in cells infected with IAV PR8 or SARS-CoV-2, cells were infected with the respective virus and treated with zapnometinib for 24 h as described in the “Virus yield reduction assay” section. After incubation, cell lysates were prepared, and the samples were analyzed by WES™ as described in the “Preparation of cell lysates and WES™ analysis” section. The pERK/ERK ratio was calculated and normalized to the solvent control. […]

IAV PR8 = format: cell-based; conditions: 100 µM, Caco-2 cells, MOI 4, 10 h

In the case of `O=C(O)c1ccc(F)c(F)c1Nc1ccc(I)cc1Cl` [zapnometinib, 2-(2-chloro-4-iodophenylamino)-N-3,4-difluoro benzoic acid], the “Level of MEK activation (ERK phosphorylation) at EC50” value (“Level of MEK activation” for short) ([1]; Caco-2 cells, IAV PR8, interpolated at EC50 5.72 µM) is reported as 37%, the “Level of MEK activation” value ([1]; Caco-2 cells, SARS-CoV-2, interpolated at EC50 22.9 µM) is reported as 25% and the “Level of MEK activation” value ([1]; Calu-3 cells, IAV PR8, interpolated at EC50 7.13 µM) is reported as 25%. For the same compound, the “Level of MEK activation” value ([1]; Calu-3 cells, SARS-CoV-2, interpolated at EC50 19.7 µM) was 10%, the IC50 ([1]; Caco-2, 24 h, read-out: IC50 value (ERK phosphorylation) in infected cells, IAV PR8-infected Caco-2 cells, MOI 0.01, 0.2% BSA, 24 h) was 2240 nM and the IC50 ([1]; Caco-2, 24 h, read-out: IC50 value (ERK phosphorylation) in infected cells, SARS-CoV-2-infected Caco-2 cells, MOI 0.01, 0.2% BSA, 24 h, bottom plateau constrained to 0) was 5650 nM. For the same compound, the IC50 ([1]; Calu-3, 24 h, read-out: IC50 value (ERK phosphorylation) in infected cells, IAV PR8-infected Calu-3 cells, MOI 0.01, 0.2% BSA, 24 h) was 1010 nM, the IC50 ([1]; Calu-3, 24 h, read-out: IC50 value (ERK phosphorylation) in infected cells, SARS-CoV-2-infected Calu-3 cells, MOI 0.01, 0.2% BSA, 24 h) was 1990 nM and the “Infected cells (IAV PR8 NP positive) normalized to solvent control” value (IAV PR8) was 44.9%. For the same compound, the “localization of the IAV NP” value (IAV PR8) was “retention of the IAV NP in the nucleus”.
